From the supplement of paper PMC10307832

Key:
Experiment in all cases: relative viability (nuclei count vs DMSO), 5 days (fraction); higher = more cells survive
[1] = compound: C1=CC(=CC=C1C2=CC(=C(S2)NC(=O)N)C(=O)N)F [TPCA-1] + C[C@@H](Oc1cc(-c2cnn(C3CCNCC3)c2)cnc1N)c1c(Cl)ccc(F)c1Cl [Crizotinib] (partner 1 µM)
How it was run: (§1)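 Medians of duplicate plates are given as relative viability. That measure is the nuclei count in treated wells divided by the count in vehicle wells. Counts were taken on 4× images of lung cancer cell lines in 1536-well plates, 5 days after pin-tool dosing the day after seeding with one drug alone or a fixed anchor-drug dose plus five library-drug doses (not always all listed) in √10 steps.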

[2] = compound: C[C@]12O[C@H](C[C@]1(O)CO)n1c3ccccc3c3c4c(c5c6ccccc6n2c5c31)CNC4=O [Lestaurtinib] + Cc1nc(NC(=O)N2CCC[C@H]2C(N)=O)sc1-c1ccnc(C(C)(C)C(F)(F)F)c1 [Alpelisib] (partner 2 µM)
How it was run: as §1

[3] = compound: C1=CC(=CC=C1C2=CC(=C(S2)NC(=O)N)C(=O)N)F [TPCA-1] + Cc1nc(NC(=O)N2CCC[C@H]2C(N)=O)sc1-c1ccnc(C(C)(C)C(F)(F)F)c1 [Alpelisib] (partner 2 µM)
How it was run: as §1

[4] = compound: C1/C(=C\C2=CC=CS2)/C(=O)/C(=C/C3=CC=CS3)/C1 + Cc1nc(NC(=O)N2CCC[C@H]2C(N)=O)sc1-c1ccnc(C(C)(C)C(F)(F)F)c1 [Alpelisib] (partner 2 µM)
How it was run: as §1

Cell Line	relative viability ([1]; first compound 0.04 µM)	relative viability ([1]; first compound 0.1265 µM)	relative viability ([1]; first compound 0.4 µM)	relative viability ([1]; first compound 1.265 µM)	relative viability ([1]; first compound 4 µM)	relative viability ([2]; first compound 0.005 µM)	relative viability ([2]; first compound 0.01581 µM)	relative viability ([2]; first compound 0.05 µM)	relative viability ([2]; first compound 0.1581 µM)	relative viability ([2]; first compound 0.5 µM)	relative viability ([3]; first compound 0.04 µM)	relative viability ([3]; first compound 0.1265 µM)	relative viability ([3]; first compound 0.4 µM)	relative viability ([3]; first compound 1.265 µM)	relative viability ([3]; first compound 4 µM)	relative viability ([4]; first compound 0.2 µM)	relative viability ([4]; first compound 0.6325 µM)	relative viability ([4]; first compound 2 µM)	relative viability ([4]; first compound 6.325 µM)	relative viability ([4]; first compound 20 µM)
HCC-44	0.798	0.708	0.76	0.681	0.644	0.782	0.973	0.644	0.834	0.469	0.876	0.765	0.838	0.703	0.66	0.751	0.856	0.813	0.668	0.799
HCC-78	0.362	0.341	0.345	0.338	0.307	0.349	0.328	0.334	0.246	0.226	0.36	0.315	0.362	0.311	0.262	0.349	0.313	0.359	0.321	0.342
HCC-366	0.562	0.644	0.588	0.472	0.258	0.477	0.438	0.388	0.287	0.209	0.481	0.362	0.352	0.378	0.185	0.502	0.393	0.378	0.345	0.421
HCC-827	0.948	0.924	0.899	0.83	0.567	0.948	0.905	0.862	0.585	0.311	1.09	0.933	1.08	0.905	0.491	0.903	0.924	1.02	0.935	0.98
HOP-62	0.974	0.865	0.974	1.05	0.641	1.05	0.919	1.17	0.775	0.436	1.05	0.602	0.898	0.874	0.914	1.01	0.741	1.09	0.764	0.93
IA-LM	0.767	0.762	0.985	0.667	0.657	0.967	0.964	1.13	1.05	0.28	0.912	0.619	0.729	0.892	0.677	0.728	0.746	0.651	0.679	0.768
LC-2-ad	0.441	0.427	0.464	0.413	0.263	0.961	0.829	0.354	0.227	0.139	0.937	0.775	0.99	0.82	0.326	0.961	0.956	0.942	0.702	0.824
LCLC-97TM1	0.347	0.325	0.568	0.28	0.15	0.256	0.189	0.171	0.138	0.148	0.249	0.241	0.223	0.248	0.187	0.255	0.225	0.272	0.212	0.248
LCLC-103H	1.12	1.03	0.96	1.03	1.03	1.06	0.991	0.678	0.683	0.651	1.06	0.901	0.992	1	1.03	1.05	0.926	1.02	0.73	0.956
LK-2	0.22	0.229	0.289	0.206	0.313	1.37	0.97	1.01	0.647	0.365	1.23	0.758	0.946	0.692	0.627	0.94	1.02	0.856	1.13	0.813
LOU-NH91	0.724	0.736	0.726	0.731	0.656	0.757	0.666	0.623	0.472	0.416	0.769	0.652	0.736	0.78	0.669	0.776	0.746	0.769	0.671	0.729
LU99A	0.613	0.534	0.47	0.506	0.249	0.413	0.488	0.233	0.283	0.192	0.564	0.445	0.5	0.388	0.243	0.499	0.547	0.545	0.476	0.454
LXF-289	0.84	0.785	0.794	0.806	0.537	1.05	1.09	0.695	0.91	0.178	1.07	0.951	1.05	0.955	0.783	1.02	1.08	1.05	0.974	1.04
NCI-H23	0.582	0.503	0.515	0.441	0.341	0.666	0.552	0.571	0.565	0.236	0.756	0.665	0.705	0.587	0.512	0.705	0.899	0.706	0.483	0.742
NCI-H1395	–	–	–	–	–	1.15	1.14	0.795	0.813	0.483	1.16	0.997	1.14	1.07	0.941	1.1	1.04	1.17	1.02	1.08
NCI-H1650	1.18	0.92	1.04	1.09	0.891	–	–	–	–	–	–	–	–	–	–	–	–	–	–	–
NCI-H1793	–	–	–	–	–	0.874	0.761	0.588	0.546	0.494	0.724	0.646	0.735	0.828	0.566	0.64	0.656	0.763	0.696	0.559
